Measurements reported in ChEMBL document CHEMBL2375321, “Discovery of 3,3'-diindolylmethanes as potent antileishmanial agents” (Eur J Med Chem, 2013).
Values after ≈ are worked out from the molar mass of the structure shown. Active and inactive are the calls of the source. Unless noted, the calls are words filed in the database; no cut-off is given here.

What was measured:
Vero = assay: Cytotoxicity against african green monkey Vero cells up to 4.6 ug/ml after 48 hrs by neutral red assay; assay type: cell-based; details: chlorocebus sabaeus
Leishmania donovani [1] = assay: Antileishmanial activity against axenic amastigote of Leishmania donovani after 72 hrs by alamar blue assay; assay type: functional, organism-based
Leishmania donovani [2] = assay: Antileishmanial activity against promastigote of Leishmania donovani after 72 hrs by alamar blue assay; assay type: functional, organism-based
Cryptococcus neoformans = assay: Antifungal activity against Cryptococcus neoformans ATCC 90113 by CLSI method; assay type: functional, organism-based
Candida albicans = assay: Antifungal activity against Candida albicans ATCC 90028 by CLSI method; assay type: functional, organism-based
Aspergillus fumigatus = assay: Antifungal activity against Aspergillus fumigatus ATCC 204305 by CLSI method; assay type: functional, organism-based
[3] = tested on: Mycobacterium intracellulare; assay: Antibacterial activity against Mycobacterium intracellulare ATCC 23068 by alamar blue assay; assay type: functional, organism-based
Staphylococcus aureus [4] = assay: Antibacterial activity against methicillin-resistant Staphylococcus aureus ATCC 33591 by CLSI method; assay type: functional, organism-based
Staphylococcus aureus [5] = assay: Antibacterial activity against Staphylococcus aureus ATCC 29213 by CLSI method; assay type: functional, organism-based
[6] = Leishmania donovani, 72 h, read-out: IC50
[7] = Staphylococcus aureus, ATCC 33591
[8] = Staphylococcus aureus, ATCC 33591, read-out: IC50

SMILES	Activity (Vero)	IC90 (Leishmania donovani [1]; Leishmania donovani, 72 h)	IC50 (Leishmania donovani [1]; [6])	IC90 (Leishmania donovani [2]; Leishmania donovani, 72 h)	IC50 (Leishmania donovani [2]; [6])	IC50 (Leishmania donovani [1])	IC90 (Leishmania donovani [1])	further results
COc1ccc2[nH]cc(C(c3ccc([N+](=O)[O-])cc3)c3c[nH]c4ccc(OC)cc34)c2c1	Non-toxic	64.2 µM	14.7 µM	18.8 µM	12.1 µM			
COc1cc(C(c2c[nH]c3ccc(I)cc23)c2c[nH]c3ccc(I)cc23)ccc1O	Non-toxic	47.2 µM	31.6 µM	37.9 µM	20.8 µM			IC50 (Cryptococcus neoformans): 3.92 µM; MFC (Cryptococcus neoformans): inactive; MIC (Cryptococcus neoformans): 32.3 µM (≈ 20 µg/mL); Activity (Candida albicans): inactive; Activity (Aspergillus fumigatus): inactive; IC50 [3]: Not Active; MBC [3]: inactive; MIC [3]: inactive; MBC (Staphylococcus aureus [4]): inactive; MIC (Staphylococcus aureus [4]; [7]): 4.03 µM (≈ 2.5 µg/mL); IC50 (Staphylococcus aureus [4]; [8]): 2.11 µM; IC50 (Staphylococcus aureus [5]): 1.89 µM; MBC (Staphylococcus aureus [5]): inactive; MIC (Staphylococcus aureus [5]): 4.03 µM (≈ 2.5 µg/mL)
COc1ccc(C(c2c[nH]c3ccccc23)c2c[nH]c3ccccc23)cc1O	Non-toxic	79.5 µM	42.2 µM	95.6 µM	85 µM			IC50 (Cryptococcus neoformans): 16.9 µM; MFC (Cryptococcus neoformans): 27.2 µM (≈ 10 µg/mL); MIC (Cryptococcus neoformans): 27.2 µM (≈ 10 µg/mL); Activity (Candida albicans): inactive; Activity (Aspergillus fumigatus): inactive; IC50 [3]: Not Active; MBC [3]: inactive; MIC [3]: inactive; MBC (Staphylococcus aureus [4]): inactive; MIC (Staphylococcus aureus [4]; [7]): 27.2 µM (≈ 10 µg/mL); IC50 (Staphylococcus aureus [4]; [8]): 12.3 µM; IC50 (Staphylococcus aureus [5]): 7.47 µM; MBC (Staphylococcus aureus [5]): inactive; MIC (Staphylococcus aureus [5]): 13.6 µM (≈ 5.01 µg/mL)
COc1ccc(C(c2c[nH]c3ccccc23)c2c[nH]c3ccccc23)cc1	Non-toxic			106 µM	89 µM	Not Active	inactive	IC50 (Cryptococcus neoformans): 35.5 µM; MFC (Cryptococcus neoformans): inactive; MIC (Cryptococcus neoformans): inactive; Activity (Candida albicans): inactive; Activity (Aspergillus fumigatus): inactive; IC50 [3]: Not Active; MBC [3]: inactive; MIC [3]: inactive; IC50 (Staphylococcus aureus [4]): Not Active; MBC (Staphylococcus aureus [4]): inactive; MIC (Staphylococcus aureus [4]): inactive; IC50 (Staphylococcus aureus [5]): 9.06 µM; MBC (Staphylococcus aureus [5]): inactive; MIC (Staphylococcus aureus [5]): inactive
COc1ccc(C(c2c[nH]c3ccccc23)c2c[nH]c3ccccc23)cc1Br	Non-toxic				82.9 µM	Not Active	inactive	IC50 [3]: Not Active; MBC [3]: inactive; MIC [3]: inactive; MBC (Staphylococcus aureus [4]): inactive; MIC (Staphylococcus aureus [4]): inactive; IC50 (Staphylococcus aureus [4]; [8]): 31.5 µM; IC50 (Staphylococcus aureus [5]): 7.84 µM; MBC (Staphylococcus aureus [5]): inactive; MIC (Staphylococcus aureus [5]): inactive; IC90 (Leishmania donovani [2]): inactive
Ic1ccc2[nH]cc(C(c3cccc4ccccc34)c3c[nH]c4ccc(I)cc34)c2c1	Non-toxic					Not Active	inactive	IC50 (Leishmania donovani [2]): Not Active; IC90 (Leishmania donovani [2]): inactive
c1ccc2c(C(c3c[nH]c4ccccc34)c3c[nH]c4ccccc34)c3ccccc3cc2c1	Non-toxic		53.4 µM	91.9 µM	82 µM		inactive	
O=[N+]([O-])c1ccc(C(c2c[nH]c3ccccc23)c2c[nH]c3ccccc23)cc1	Non-toxic	72.3 µM	40.8 µM	54.3 µM	15.9 µM			
N=C(N)c1ccc(OCCCCCOc2ccc(C(=N)N)cc2)cc1 [PENTAMIDINE]		14.3 µM		6.21 µM	3.29 µM			
COc1ccc2[nH]cc(C(c3cccs3)c3c[nH]c4ccc(OC)cc34)c2c1	Non-toxic	84.8 µM	59 µM	65.8 µM	38.1 µM			
Clc1cccc(Cl)c1C(c1c[nH]c2ccc(I)cc12)c1c[nH]c2ccc(I)cc12	Non-toxic					Not Active	inactive	IC50 (Leishmania donovani [2]): Not Active; IC90 (Leishmania donovani [2]): inactive
Fc1cc(F)cc(C(c2c[nH]c3ccc(I)cc23)c2c[nH]c3ccc(I)cc23)c1	Non-toxic	44.5 µM	23.2 µM	41.2 µM	24.2 µM			
COc1ccc2[nH]cc(C(c3c4ccccc4cc4ccccc34)c3c[nH]c4ccc(OC)cc34)c2c1	Non-toxic		39.8 µM	64.9 µM	34.6 µM		inactive	
COc1ccc2[nH]cc(C(c3ccc(Br)cc3)c3c[nH]c4ccc(OC)cc34)c2c1	Non-toxic			58.5 µM	32.7 µM	Not Active	inactive	
